Consider 6 compounds from patent US20210307271A1, “OPTIMIZATION OF ALGAL PRODUCT PRODUCTION THROUGH UNCOUPLING CELL PROLIFERATION AND ALGAL PRODUCT PRODUCTION” (priority 2008, published 2021).

What all share (type): cell-based
Common to all, as to set-up: unit not given here

In experiment [1] the test system is Scenedesmus obliquus. Kind of experiment: Effect of hormone concentrations on growth rate, photoheterotrophic conditions, 48 hours. The conditions noted are these: control 0.41 ± 0.042.
Experiment [2] concerns Chlorella protothecoides. The experiment in a line: Effect of hormone concentrations on growth rate, heterotrophic conditions, 48 hours. The following applies: control 1.54 ± 0.080.
In experiment [3] the test system is Chlorella protothecoides. The experiment in a line: Effect of hormone concentrations on growth rate, photoheterotrophic conditions, 48 hours. The conditions noted are these: control 1.05 ± 0.020.
In experiment [4] the test system is Scenedesmus obliquus. Kind of experiment: Effect of hormone concentrations on growth rate, heterotrophic conditions, 48 hours. The following applies: control 0.35 ± 0.023.

Structures are written as SMILES.

As to `O=C(O)Cc1cccc2ccccc12` [1-Naphthaleneacetic acid, 1-naphthaleneacetic acid], the growth rate is given as 0.84 ± 0.087 in the experiment on Scenedesmus obliquus [1] (hormone 0.01 ng); 0.85 ± 0.042 in the experiment with Scenedesmus obliquus [1] (hormone 0.1 ng); 0.81 ± 0.042 in the experiment with Scenedesmus obliquus [1] (hormone 1 ng); 0.80 ± 0.141 in the experiment with Scenedesmus obliquus [1] (hormone 10 ng); 0.73 ± 0.046 in the experiment with Scenedesmus obliquus [1] (hormone 100 ng); 1.66 ± 0.140 in the experiment with Chlorella protothecoides [2] (hormone 0.01 ng). Also, the growth rate in the experiment with Chlorella protothecoides [2] (hormone 0.1 ng) is 1.54 ± 0.081; in the experiment on Chlorella protothecoides [2] (hormone 1 ng), 1.62 ± 0.136; in the experiment on Chlorella protothecoides [2] (hormone 10 ng), 1.57 ± 0.028; in the experiment on Chlorella protothecoides [2] (hormone 100 ng), 1.62 ± 0.064; in the experiment with Chlorella protothecoides [3] (hormone 0.01 ng), 1.00 ± 0.058; in the experiment on Chlorella protothecoides [3] (hormone 0.1 ng) it was 1.02 ± 0.050. Moreover, the growth rate in the experiment with Chlorella protothecoides [3] (hormone 1 ng) turned out to be 1.05 ± 0.035; in the experiment on Chlorella protothecoides [3] (hormone 10 ng), 1.07 ± 0.028; in the experiment with Chlorella protothecoides [3] (hormone 100 ng), 1.16 ± 0.152; with Scenedesmus obliquus [4] (hormone 0.01 ng) it was 0.26 ± 0.042; with Scenedesmus obliquus [4] (hormone 0.1 ng), 0.28 ± 0.011; with Scenedesmus obliquus [4] (hormone 1 ng), 0.33 ± 0.020. Further, the growth rate in the experiment with Scenedesmus obliquus [4] (hormone 10 ng) is 0.28 ± 0.099; with Scenedesmus obliquus [4] (hormone 100 ng), 0.39 ± 0.053.
For `O=C(O)COc1ccc(Cl)cc1Cl` [2,4-Dichlorophenoxyacetic, 2,4-dichlorophenoxyacetic acid], the growth rate in the experiment on Scenedesmus obliquus [1] (hormone 0.01 ng) was determined as 0.42 ± 0.035; in the experiment with Scenedesmus obliquus [1] (hormone 0.1 ng) it was 0.44 ± 0.000; with Scenedesmus obliquus [1] (hormone 1 ng), 0.47 ± 0.023; in the experiment on Scenedesmus obliquus [1] (hormone 10 ng), 0.44 ± 0.028; with Scenedesmus obliquus [1] (hormone 100 ng), 0.33 ± 0.042; with Chlorella protothecoides [2] (hormone 0.01 ng), 1.40 ± 0.061. Moreover, the growth rate with Chlorella protothecoides [2] (hormone 0.1 ng) was determined as 1.53 ± 0.069; in the experiment with Chlorella protothecoides [2] (hormone 1 ng), 1.43 ± 0.069; with Chlorella protothecoides [2] (hormone 10 ng) it was 1.31 ± 0.087; in the experiment on Chlorella protothecoides [2] (hormone 100 ng), 1.50 ± 0.081; in the experiment on Chlorella protothecoides [3] (hormone 0.01 ng), 1.09 ± 0.035; in the experiment on Chlorella protothecoides [3] (hormone 0.1 ng) it was 1.08 ± 0.133. For the same compound, the growth rate in the experiment on Chlorella protothecoides [3] (hormone 1 ng) was determined as 1.01 ± 0.035; in the experiment on Chlorella protothecoides [3] (hormone 10 ng) it was 1.08 ± 0.030; with Chlorella protothecoides [3] (hormone 100 ng), 1.03 ± 0.069; in the experiment with Scenedesmus obliquus [4] (hormone 0.01 ng), 0.28 ± 0.030; in the experiment with Scenedesmus obliquus [4] (hormone 0.1 ng), 0.23 ± 0.040; in the experiment with Scenedesmus obliquus [4] (hormone 1 ng), 0.31 ± 0.020. The growth rate with Scenedesmus obliquus [4] (hormone 10 ng) turned out to be 0.24 ± 0.081; in the experiment on Scenedesmus obliquus [4] (hormone 100 ng), 0.23 ± 0.040.
As for `c1ccc(CNc2ncnc3nc[nH]c23)cc1` [6-Benzylaminopurine, 6-benzylaminopurine], the growth rate in the experiment on Scenedesmus obliquus [1] (hormone 0.01 ng) is listed as 0.46 ± 0.056; in the experiment on Scenedesmus obliquus [1] (hormone 0.1 ng), 0.37 ± 0.099; with Scenedesmus obliquus [1] (hormone 1 ng), 0.47 ± 0.011; in the experiment with Scenedesmus obliquus [1] (hormone 10 ng), 0.47 ± 0.064; with Scenedesmus obliquus [1] (hormone 100 ng), 0.52 ± 0.060; in the experiment on Chlorella protothecoides [2] (hormone 0.01 ng) it was 1.48 ± 0.121. Moreover, the growth rate is listed as 1.54 ± 0.081 with Chlorella protothecoides [2] (hormone 0.1 ng); 1.50 ± 0.012 in the experiment on Chlorella protothecoides [2] (hormone 1 ng); 1.52 ± 0.117 in the experiment with Chlorella protothecoides [2] (hormone 10 ng); 1.46 ± 0.150 in the experiment on Chlorella protothecoides [2] (hormone 100 ng); 1.00 ± 0.030 in the experiment on Chlorella protothecoides [3] (hormone 0.01 ng); 1.12 ± 0.011 in the experiment with Chlorella protothecoides [3] (hormone 0.1 ng). For the same compound, the growth rate with Chlorella protothecoides [3] (hormone 1 ng) stood at 1.07 ± 0.035; in the experiment with Chlorella protothecoides [3] (hormone 10 ng) it was 1.04 ± 0.083; in the experiment on Chlorella protothecoides [3] (hormone 100 ng) it was 1.08 ± 0.023; in the experiment on Scenedesmus obliquus [4] (hormone 0.01 ng) it was 0.28 ± 0.081; in the experiment on Scenedesmus obliquus [4] (hormone 0.1 ng), 0.32 ± 0.061; in the experiment with Scenedesmus obliquus [4] (hormone 1 ng), 0.39 ± 0.092. In addition, the growth rate in the experiment with Scenedesmus obliquus [4] (hormone 10 ng) is listed as 0.36 ± 0.092; with Scenedesmus obliquus [4] (hormone 100 ng), 0.33 ± 0.104.
As to `C=C1C[C@]23C[C@@]1(O)CC[C@H]2[C@@]12C=C[C@H](O)[C@@](C)(C(=O)O1)[C@H]2[C@@H]3C(=O)O` [Gibberellic acid], the growth rate in the experiment on Scenedesmus obliquus [1] (hormone 0.01 ng) was determined as 0.59 ± 0.064; in the experiment on Scenedesmus obliquus [1] (hormone 0.1 ng), 0.47 ± 0.081; in the experiment on Scenedesmus obliquus [1] (hormone 1 ng), 0.56 ± 0.087; with Scenedesmus obliquus [1] (hormone 10 ng), 0.56 ± 0.141; with Scenedesmus obliquus [1] (hormone 100 ng), 0.51 ± 0.110; with Chlorella protothecoides [2] (hormone 0.01 ng), 1.52 ± 0.201. For the same compound, the growth rate in the experiment with Chlorella protothecoides [2] (hormone 0.1 ng) came out at 1.52 ± 0.151; in the experiment on Chlorella protothecoides [2] (hormone 1 ng) it was 1.46 ± 0.090; in the experiment on Chlorella protothecoides [2] (hormone 10 ng), 1.52 ± 0.099; with Chlorella protothecoides [2] (hormone 100 ng) it was 1.46 ± 0.050; in the experiment with Chlorella protothecoides [3] (hormone 0.01 ng), 1.06 ± 0.011; with Chlorella protothecoides [3] (hormone 0.1 ng) it was 1.02 ± 0.046. Moreover, the growth rate was 1.00 ± 0.030 in the experiment on Chlorella protothecoides [3] (hormone 1 ng); 1.09 ± 0.122 with Chlorella protothecoides [3] (hormone 10 ng); 1.10 ± 0.070 with Chlorella protothecoides [3] (hormone 100 ng); 0.44 ± 0.083 in the experiment with Scenedesmus obliquus [4] (hormone 0.01 ng); 0.50 ± 0.046 in the experiment with Scenedesmus obliquus [4] (hormone 0.1 ng); 0.43 ± 0.020 with Scenedesmus obliquus [4] (hormone 1 ng). In addition, the growth rate in the experiment with Scenedesmus obliquus [4] (hormone 10 ng) stood at 0.36 ± 0.050; with Scenedesmus obliquus [4] (hormone 100 ng), 0.42 ± 0.064.
For the compound `O=C(O)Cc1c[nH]c2ccccc12` [Indole-3-acetic acid, indole-3-acetic acid], the growth rate in the experiment on Scenedesmus obliquus [1] (hormone 0.01 ng) is 0.42 ± 0.020; in the experiment on Scenedesmus obliquus [1] (hormone 0.1 ng), 0.47 ± 0.061; in the experiment with Scenedesmus obliquus [1] (hormone 1 ng), 0.49 ± 0.030; with Scenedesmus obliquus [1] (hormone 10 ng) it was 0.49 ± 0.023; in the experiment on Scenedesmus obliquus [1] (hormone 100 ng) it was 0.62 ± 0.092; in the experiment with Chlorella protothecoides [2] (hormone 0.01 ng), 1.62 ± 0.133. The growth rate in the experiment with Chlorella protothecoides [2] (hormone 0.1 ng) came out at 1.61 ± 0.072; in the experiment with Chlorella protothecoides [2] (hormone 1 ng), 1.49 ± 0.122; in the experiment on Chlorella protothecoides [2] (hormone 10 ng), 1.60 ± 0.099; with Chlorella protothecoides [2] (hormone 100 ng) it was 1.60 ± 0.076; in the experiment on Chlorella protothecoides [3] (hormone 0.01 ng) it was 1.06 ± 0.030; in the experiment on Chlorella protothecoides [3] (hormone 0.1 ng) it was 1.05 ± 0.019. Also, the growth rate in the experiment with Chlorella protothecoides [3] (hormone 1 ng) is on record as 0.97 ± 0.020; in the experiment on Chlorella protothecoides [3] (hormone 10 ng), 1.13 ± 0.019; in the experiment with Chlorella protothecoides [3] (hormone 100 ng), 1.02 ± 0.061; in the experiment with Scenedesmus obliquus [4] (hormone 0.01 ng), 0.23 ± 0.020; with Scenedesmus obliquus [4] (hormone 0.1 ng), 0.36 ± 0.127; with Scenedesmus obliquus [4] (hormone 1 ng) it was 0.42 ± 0.081. For the same compound, the growth rate with Scenedesmus obliquus [4] (hormone 10 ng) is listed as 0.47 ± 0.020; with Scenedesmus obliquus [4] (hormone 100 ng), 0.41 ± 0.053.
Take `c1coc(CNc2ncnc3[nH]cnc23)c1` [Kinetin, kinetin]: the growth rate is reported as 0.57 ± 0.133 in the experiment with Scenedesmus obliquus [1] (hormone 0.01 ng); 0.73 ± 0.042 in the experiment on Scenedesmus obliquus [1] (hormone 0.1 ng); 0.92 ± 0.113 in the experiment on Scenedesmus obliquus [1] (hormone 1 ng); 0.37 ± 0.070 in the experiment with Scenedesmus obliquus [1] (hormone 10 ng); 0.36 ± 0.060 in the experiment on Scenedesmus obliquus [1] (hormone 100 ng); 1.60 ± 0.050 in the experiment with Chlorella protothecoides [2] (hormone 0.01 ng). Moreover, the growth rate with Chlorella protothecoides [2] (hormone 0.1 ng) is given as 1.50 ± 0.050; in the experiment with Chlorella protothecoides [2] (hormone 1 ng), 1.44 ± 0.110; in the experiment with Chlorella protothecoides [2] (hormone 10 ng) it was 1.60 ± 0.070; in the experiment on Chlorella protothecoides [2] (hormone 100 ng), 1.58 ± 0.061; in the experiment on Chlorella protothecoides [3] (hormone 0.01 ng) it was 1.08 ± 0.023; in the experiment on Chlorella protothecoides [3] (hormone 0.1 ng) it was 1.10 ± 0.042. The growth rate is on record as 1.02 ± 0.011 in the experiment on Chlorella protothecoides [3] (hormone 1 ng); 1.18 ± 0.050 in the experiment on Chlorella protothecoides [3] (hormone 10 ng); 1.19 ± 0.035 in the experiment with Chlorella protothecoides [3] (hormone 100 ng); 0.28 ± 0.061 in the experiment on Scenedesmus obliquus [4] (hormone 0.01 ng); 0.26 ± 0.076 in the experiment with Scenedesmus obliquus [4] (hormone 0.1 ng); 0.36 ± 0.042 in the experiment on Scenedesmus obliquus [4] (hormone 1 ng). Further, the results for the growth rate in the experiment with Scenedesmus obliquus [4] (hormone 10 ng) and in the experiment with Scenedesmus obliquus [4] (hormone 100 ng) were 0.31 ± 0.028 and 0.28 ± 0.076, respectively.
